One data set has as its system human leukaemia samples. The following applies: ref Bresters et al, 2003; cited from earlier work.
For a further data set, the system named is HeLa-APL cells. In words: Sulphorhodamine B (SRB) growth inhibition assay, resistant subline. Format: cell-based, human. The following applies: HeLa-APL vs HeLa wt; for crossresistance of HeLa-APL cells (IC50 values, SRB cell growth assay): 48 or 72 h exposure; for crossresistance of HeLa-APL cells: data not shown. Here is the method: HeLa, HeLa-APL, LoVo and LoVo-dox ([Grandi et al, 1986]) cells were maintained in DMEM supplemented with 10% FCS and 100 U ml^−1 penicillin and streptomycin at 37°C and 5% CO2.
Cells were washed twice with PBS, fixed for 15 min in 1% glutaraldehyde solution, rinsed twice in PBS, and stained in 0.4% SRB solution for 30 min at room temperature. Cells were then rinsed several times with 1% acetic acid solution and air-dried. Sulphorhodamine B was then extracted in 10 mM trizma base solution and the absorbance measured at 490 nm. Cell survival was expressed as percentage of control cell growth.

Data set [1] deals with HeLa wt and HeLa-APL cells. Briefly: Detection of drug in cell extracts by Maldi-TOF mass spectrometry. It counts as in vitro ADME, human. The following applies: 450 nM, 1 h exposure, methanol cell extracts, Maldi-TOF MS, parental and HeLa-APL cells. The method, then: To detect minute amounts of APL present in the cellular extracts, Matrix-Assisted Laser Desorption/Ionisation-Time Of Flight Mass Spectrometry (Maldi-TOF MS) technique was used. Cell cultures were treated with vehicle or APL at the concentrations and times indicated in the text, washed with PBS and harvested by centrifugation at 6000 r.p.m. for 5 min at 4°C. Cell pellets were washed with PBS and extracted with cold methanol. Equal amounts of extract were applied on a template, air dried, mixed with 0.2–0.5 μl matrix (10 mg ml^−1 dihydroxy benzoic acid in water :acetonitrile mix, 1% trifluoroacetic acid) and air dried. Analyses were performed on a Voyager DE Pro (PerSeptive Biosystems, Framingham, MS, USA). Mass spectra were averaged over 100–200 laser shots from a nitrogen laser (337 nm) operating in a linear mode. Ionised molecules were accelerated with a voltage of 20 kV. The following peptides were used as external markers: intact human insulin, human insulin alpha-chain, human insulin beta-chain and cytochrome c.

Data set [2] has as its system HeLa wt and HeLa-APL cells. In words: Intracellular accumulation of fluorescent APL-dmac (fluorescence microscopy). It counts as in vitro ADME, human. The method, then: (§1) Cells were stained with APL-dmac, Calcein-AM or Hoechst-33342 by direct addition of the fluorescent compounds in the cell culture dishes, incubated at 37°C for the times indicated, washed in PBS and examined by fluorescence microscopy.

Details of data set [3]: method as in Vervoort and Fenical, 2000; Joullie et al, 2003. The note with it: ref Vervoort and Fenical, 2000; Joullie et al, 2003; cited from earlier work.
A further data set deals with T1, Pgp170 in LoVo-Dox cells (Homo sapiens, UniProt P08183).
T1 construct: endogenous in cells; host or cells: LoVo-Dox (doxorubicin-selected LoVo colorectal carcinoma cells)
T1 sequence (P08183 whole entry): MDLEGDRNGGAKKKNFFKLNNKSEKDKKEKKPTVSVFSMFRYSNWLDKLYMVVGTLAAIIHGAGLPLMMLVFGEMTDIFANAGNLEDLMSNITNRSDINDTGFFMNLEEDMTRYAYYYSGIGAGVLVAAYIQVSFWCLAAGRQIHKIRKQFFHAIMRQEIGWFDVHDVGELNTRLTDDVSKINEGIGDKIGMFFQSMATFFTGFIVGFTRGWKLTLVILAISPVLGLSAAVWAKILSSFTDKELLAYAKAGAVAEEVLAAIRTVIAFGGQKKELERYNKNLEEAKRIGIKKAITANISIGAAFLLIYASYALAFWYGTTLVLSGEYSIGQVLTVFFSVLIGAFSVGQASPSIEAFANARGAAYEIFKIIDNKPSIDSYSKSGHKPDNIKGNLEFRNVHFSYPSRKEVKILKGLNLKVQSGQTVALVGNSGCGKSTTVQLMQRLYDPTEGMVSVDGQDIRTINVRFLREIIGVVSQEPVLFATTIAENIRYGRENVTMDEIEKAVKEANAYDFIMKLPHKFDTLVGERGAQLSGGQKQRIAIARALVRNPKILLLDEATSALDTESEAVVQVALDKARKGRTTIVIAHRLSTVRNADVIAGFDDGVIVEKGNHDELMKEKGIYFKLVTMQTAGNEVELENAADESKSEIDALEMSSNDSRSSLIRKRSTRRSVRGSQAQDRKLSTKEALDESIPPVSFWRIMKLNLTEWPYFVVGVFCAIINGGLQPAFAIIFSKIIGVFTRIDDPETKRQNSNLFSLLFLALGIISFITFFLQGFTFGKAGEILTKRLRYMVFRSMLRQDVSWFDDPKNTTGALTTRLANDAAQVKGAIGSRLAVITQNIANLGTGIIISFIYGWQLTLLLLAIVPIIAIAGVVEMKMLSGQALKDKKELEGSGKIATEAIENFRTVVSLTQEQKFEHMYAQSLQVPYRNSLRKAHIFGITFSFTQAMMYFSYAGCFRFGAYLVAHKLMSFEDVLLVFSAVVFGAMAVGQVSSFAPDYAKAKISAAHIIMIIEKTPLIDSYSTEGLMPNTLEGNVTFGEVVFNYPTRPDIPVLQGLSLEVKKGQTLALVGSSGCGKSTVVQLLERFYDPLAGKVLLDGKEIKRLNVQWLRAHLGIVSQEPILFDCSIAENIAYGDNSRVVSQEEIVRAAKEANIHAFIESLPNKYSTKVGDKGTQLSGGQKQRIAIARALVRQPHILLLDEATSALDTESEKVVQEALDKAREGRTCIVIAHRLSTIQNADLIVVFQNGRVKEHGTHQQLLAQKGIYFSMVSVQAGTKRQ
In words: Calcein-AM accumulation in LoVo-Dox cells (fluorescence microscopy). The note with it: 50 μM verapamil, Calcein-AM loaded for 1 h. Format: cell-based. Here is the method: as §1

Starred links: 1 amine or outer side, 2 acyl side, 3 side chain; linkers in the order of their positions; H or OH if unused. Positions of bridges follow the written chain, without caps; N, C: chain ends. Non-standard residues stand in square brackets, D forms with d. Residues, ends and D or L forms follow the SMILES beside them. *: point of attachment. X1 = CC[C@H](C)[C@@H](N[*:1])[C@@H](O)CC(=O)O[C@H](C(=O)[C@H](C)C(=O)[*:2])C(C)C; X3 = CC[C@H](C)[C@@H](N[*:1])[C@@H](O)CC(=O)[*:2]; X2 = CN(C)c1ccc2c(CC(=O)*)cc(=O)oc2c1; NMeY = CN[C@@H](Cc1ccc(O)cc1)C(=O)O; dNMeL = CN[C@H](CC(C)C)C(=O)O; Hiv = CC(C)[C@H](O)C(=O)O; Pyruvoyl = CC(=O)C(=O)*; Lac = C[C@H](O)C(=O)O

In the case of `Nc1ccn([C@@H]2O[C@H](CO)[C@@H](O)C2(F)F)c(=O)n1` [2′,2′-difluorodeoxycytidine], the “crossresistance with APL” value in the data set on human leukaemia samples is given as “trend for crossresistance”. On to `Nc1ncn([C@@H]2O[C@H](CO)[C@@H](O)[C@H]2O)c(=O)n1` [5-azacytidine], for which the “crossresistance of HeLa-APL cells (IC50 values, SRB cell growth assay)” value in the data set with HeLa-APL cells (triplicate plates) was “no significant crossresistance”. As to `Sc1ncnc2nc[nH]c12` [6-mercaptopurine], the “crossresistance of HeLa-APL cells (IC50 values, SRB cell growth assay)” value with HeLa-APL cells (triplicate plates) was “no significant crossresistance”.

`Nc1nc2nc[nH]c2c(=S)[nH]1` [6-thioguanine]: the “crossresistance of HeLa-APL cells (IC50 values, SRB cell growth assay)” value with HeLa-APL cells (triplicate plates) was “no significant crossresistance”. For `CC[C@H](C)[C@H]1NC(=O)[C@@H](NC(=O)[C@@H](CC(C)C)N(C)C(=O)[C@@H]2CCCN2C(=O)C(C)=O)[C@@H](C)OC(=O)[C@H](Cc2ccc(OC)cc2)N(C)C(=O)[C@@H]2CCCN2C(=O)[C@H](CC(C)C)NC(=O)[C@@H](C)C(=O)[C@H](C(C)C)OC(=O)C[C@@H]1O` [APL, Aplidin™] (Pyruvoyl-P[dNMeL]T[X1]LP[NMeY](Me); ester 3-C), the “presence of the intact drug in cells” value in data set [1] was “confirmed”. For the molecule `CC[C@H](C)[C@H]1NC(=O)[C@@H](NC(=O)[C@@H](CC(C)C)N(C)C(=O)Cc2cc(=O)oc3cc(N(C)C)ccc23)[C@@H](C)OC(=O)[C@H](Cc2ccc(OC)cc2)N(C)C(=O)[C@@H]2CCCN2C(=O)[C@H](CC(C)C)NC(=O)[C@@H](C)C(=O)[C@H](C(C)C)OC(=O)C[C@@H]1O` [APL-dmac, aplidin-dimethylaminocoumarin] (X2-[dNMeL]T[X1]LP[NMeY](Me); ester 2-C), the “internalisation and accumulation in the cytoplasmic compartment” value in data set [2] (450 nM APL-dmac, 1 h, 37°C, HeLa wt and HeLa-APL) is given as “consistent in both cell systems”. Also, the “internalisation after long-term treatment” value in data set [2] (not shown) is “remained internalised”. Further, in data set [1], the “presence of the intact drug in cells” value is “detected in both cell lines”. In the case of `COc1cc(NS(C)(=O)=O)ccc1Nc1c2ccccc2nc2ccccc12` [amsacrine], the “crossresistance of HeLa-APL cells” value in the data set with HeLa-APL cells is on record as “no significant crossresistance”.

Regarding `CC[C@@]1(O)C(=O)OCc2c1cc1n(c2=O)Cc2cc3ccccc3nc2-1` [camptothecin], the “crossresistance of HeLa-APL cells (IC50 values, SRB cell growth assay)” value with HeLa-APL cells (triplicate plates) is recorded as “no significant crossresistance”. `O=C(O)CCCc1ccc(N(CCCl)CCCl)cc1` [chlorambucil]: the “crossresistance of HeLa-APL cells” value in the data set on HeLa-APL cells is “no significant crossresistance”. With `N.N.[Cl][Pt][Cl]` [cisplatin], the “crossresistance of HeLa-APL cells (IC50 values, SRB cell growth assay)” value in the data set on HeLa-APL cells (triplicate plates) is recorded as “no significant crossresistance”. Turning to `COc1cccc2c1C(=O)c1c(O)c3c(c(O)c1C2=O)C[C@@](O)(C(=O)CO)C[C@@H]3O[C@H]1C[C@H](N)[C@H](O)[C@H](C)O1` [doxorubicin], in the data set with HeLa-APL cells (triplicate plates), the “crossresistance of HeLa-APL cells (IC50 values, SRB cell growth assay)” value is recorded as “no significant crossresistance”. Consider `COc1cc([C@@H]2c3cc4c(cc3[C@@H](O[C@@H]3O[C@@H]5CO[C@@H](C)O[C@H]5[C@H](O)[C@H]3O)[C@H]3COC(=O)[C@H]23)OCO4)cc(OC)c1O` [etoposide], for which the “crossresistance of HeLa-APL cells (IC50 values, SRB cell growth assay)” value in the data set with HeLa-APL cells (triplicate plates) was “no significant crossresistance”.

For the molecule `Nc1nc(F)nc2c1ncn2[C@@H]1O[C@H](CO)[C@@H](O)[C@@H]1O` [fludarabine], the “crossresistance of HeLa-APL cells (IC50 values, SRB cell growth assay)” value in the data set with HeLa-APL cells (triplicate plates) is reported as “no significant crossresistance”. Turning to `N[C@@H](Cc1ccc(N(CCCl)CCCl)cc1)C(=O)O` [melphalan], the “crossresistance of HeLa-APL cells” value in the data set with HeLa-APL cells is listed as “no significant crossresistance”.

`O=C1c2c(O)ccc(O)c2C(=O)c2c(NCCNCCO)ccc(NCCNCCO)c21` [mitoxantrone]: the “crossresistance of HeLa-APL cells” value in the data set with HeLa-APL cells is “no significant crossresistance”. Turning to `CC(=O)O[C@H]1C(=O)[C@@]2(C)[C@H]([C@H](OC(=O)c3ccccc3)[C@]3(O)C[C@H](OC(=O)[C@H](O)[C@@H](NC(=O)c4ccccc4)c4ccccc4)C(C)=C1C3(C)C)[C@]1(OC(C)=O)CO[C@@H]1C[C@@H]2O` [paclitaxel], the “crossresistance of HeLa-APL cells (IC50 values, SRB cell growth assay)” value with HeLa-APL cells (triplicate plates) is listed as “no significant crossresistance”.

With `CC[C@H](C)[C@H]1NC(=O)[C@@H](NC(=O)[C@@H](CC(C)C)N(C)C(=O)[C@@H]2CCCN2C(=O)[C@H](C)O)[C@@H](C)OC(=O)[C@H](Cc2ccc(OC)cc2)N(C)C(=O)[C@@H]2CCCN2C(=O)[C@H](CC(C)C)NC(=O)[C@H](C(C)C)OC(=O)C[C@@H]1O` [tamandarin A] (H-[Lac]P[dNMeL]T[X3][Hiv]LP[NMeY](Me); ester 4-C), in data set [3], the “cytotoxic activity relative to APL” value is reported as “comparable to that of APL”.

On to `COc1ccc(CCN(C)CCCC(C#N)(c2ccc(OC)c(OC)c2)C(C)C)cc1OC` (centres unmarked) [verapamil], for which, at Pgp170 in LoVo-Dox cells, the “effect of pre-incubation on calcein-AM accumulation” value was “accumulation of calcein-AM in LoVo-Dox-resistant cells to an extent similar to that observed in sensitive LoVo cells”. For `CC[C@]1(O)C[C@@H]2CN(CCc3c([nH]c4ccccc34)[C@@](C(=O)OC)(c3cc4c(cc3OC)N(C)[C@H]3[C@@](O)(C(=O)OC)[C@H](OC(C)=O)[C@]5(CC)C=CCN6CC[C@]43[C@@H]65)C2)C1` [vinblastine], in the data set on HeLa-APL cells (triplicate plates), the “crossresistance of HeLa-APL cells (IC50 values, SRB cell growth assay)” value is on record as “no significant crossresistance”. Consider didemnin B, for which the “cytotoxic activity relative to APL” value in data set [3] was “comparable to that of APL”. For the same molecule, in the data set with HeLa-APL cells (48 h exposure, SRB assay, triplicate plates), the “crossresistance of HeLa-APL cells to APL structural analogues” value is “comparable crossresistance”.

The values are drawn from article PMC2409906, “Establishment and characterisation of a human carcinoma cell line with acquired resistance to Aplidin™” (British Journal of Cancer, 2004).
